Calls of active or inactive are those of the source.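 Rule for the calls: active = compounds giving half or more protection of infected cells from virus-caused growth loss, again on retest; inactive = the rest.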
Test system: CEM cells HIV-1 protection, formazan growth assay
Test: NCI AIDS Antiviral Assay
Conditions: for IC50: measured here: growth of uninfected CEM cells
In short: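 Screen of anti-HIV-1 activity in human CEM cells using a formazan-based growth measurement at five drug concentrations. Hits with 50% or greater protection were repeated, and confirmation required reproducible complete protection.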

Row | SMILES | EC50 [µM] | IC50 [µM] | outcome
1 | O=c1[nH]ccc(CNC23CC4CC(CC(C4)C2)C3)c1O | > 45.7 | > 45.7 | –
2 | CCN(CC)c1c(C(=O)/C=C/c2ccccc2)c(-c2ccccc2)nn(C)c1=O | > 18.6 | 9.12 | –
3 | Cc1cc(=O)n(-c2ccccc2C)c(C)n1 | > 1000 | > 1000 | –
4 | CNC(=O)CC1NC(=O)c2csc(n2)-c2ccc(-c3nc(C4=NC(C(=O)N5CCCC5C(N)=O)CO4)cs3)nc2-c2csc(n2)-c2csc(n2)C(C(C)C)NC(=O)CNC(=O)c2csc(n2)C(C(C)C)NC(=O)c2nc1sc2C (stereo unspecified) | > 10 | > 10 | –
5 | O=C(C[C@H](NC(=O)OCc1ccccc1)C(=O)NC1Cc2ccccc2OC1=O)OCc1ccccc1 (stereo partly specified) | > 200 | 93.3 | –
6 | Cc1csc2c1-n1cccc1C2=O | > 200 | 129 | –
7 | Cc1ccc(S(=O)(=O)NC(=O)NCCc2ccccc2)cc1 | 7.08 | 295 | –
8 | O=C(O)c1c([N+](=O)[O-])cc(C(F)(F)F)cc1[N+](=O)[O-] | – | – | inactive
9 | CN(C)c1c(-c2ccc(Cl)cc2)cc(-c2ccccc2)[nH]c1=O | > 20.9 | > 20.9 | –
10 | CONc1ncnc2c1ncn2C1OC(CO)CC1F (stereo unspecified) | > 178 | > 178 | –
11 | CC(C)/C(Cl)=N/OC(=O)Nc1ccc(OC(F)(F)F)cc1 | > 200 | 10.5 | –
12 | COc1ccc(C(=O)/C=C/c2ccc(OCCCCCCCCCCOc3ccc(/C=C/C(=O)c4ccc(OC)cc4)cc3)cc2)cc1 | > 200 | > 200 | –
13 | COc1ccc(CSC2=C(C#N)C(=O)NC3(CCCCC3)S2)cc1 | > 200 | 110 | –
14 | CC1=C(C(=O)O)CCC2(C)c3ccc(C(C)C)c(O)c3CCC12 (stereo unspecified) | > 200 | 46.8 | –
15 | CC(C)(C)OC(=O)c1ccc(NCc2cc(O)ccc2O)cc1 | > 200 | 3.16 | –
16 | Cn1cc(NC(=O)Nc2cc(C(=O)Nc3cc(C(=O)Nc4ccc(S(=O)(=O)O)c5cccc(S(=O)(=O)O)c45)n(C)c3)n(C)c2)cc1C(=O)Nc1cc(C(=O)Nc2ccc(S(=O)(=O)O)c3cccc(S(=O)(=O)O)c23)n(C)c1 | – | – | inactive
17 | C=CCCCCCCCC(O)C1C[C@H](O)C(CCCCC)O1 (stereo partly specified) | – | – | inactive
18 | O=C(CNC(=O)OCc1ccccc1)NCCCCC(NC(=O)OCc1ccccc1)C(=O)NC(CCCCNC(=O)CNC(=O)OCc1ccccc1)C(=O)OCc1ccccc1 (stereo unspecified) | > 100 | > 100 | –
19 | Cc1cc2c(cc1C)C(=O)/C(=N/Nc1ccc(F)cc1)CCO2 | > 200 | 178 | –
20 | CCOc1ncn(-c2ccc(NC(=S)NC3OC(CO)C(O)C(O)C3O)cc2)n1 (stereo unspecified) | > 200 | > 200 | –
21 | C=C1CC2C(=O)N(c3ccccc3)C(=O)C2CC1n1[nH]c(=O)n(Cc2ccccc2)c1=O (stereo unspecified) | > 219 | > 219 | –

Row | SMILES | EC50 [µM] | IC50 [µM] | outcome
22 | Fc1ccc2nncc(SCc3ccc(Cl)c(Cl)c3)c2c1 | > 79.4 | > 79.4 | –
23 | CC(C)(C)OC(=O)CC(NC(=O)OC(C)(C)C)C(=O)Oc1ccc([N+](=O)[O-])cc1 (stereo unspecified) | > 200 | > 200 | –
24 | O=C(/C=C(\Cl)c1c[nH]c(=O)[nH]c1=O)c1ccccc1 | – | – | inactive
25 | CN(C)CC(/C(Cc1ccccc1)=N\NC(=O)C[n+]1ccccc1)c1ccccc1 (stereo unspecified) | > 295 | 138 | –
26 | CCCC(=O)Nc1cc([N+](=O)[O-])c([N+](=O)[O-])cc1OC | > 200 | 10.7 | –
27 | CN(C)CC(C)(C)/C(=N\Nc1ccccc1)c1ccccc1 | – | – | inactive
28 | CCCCCCCCCCCCCC(=O)OCC1OC(n2cc(C)c(=O)[nH]c2=O)CC1F (stereo unspecified) | 0.0437 | 120 | –
29 | C=C1C[C@H]2[C@@H]3C=C(C)C4=CC(=O)CC[C@]4(C)[C@H]3CC[C@]2(C)[C@@]1(OC(C)=O)C(C)=O | > 200 | 28.2 | –
30 | CC1(C)CCCCC1/C=C/C(CC(O)(C(F)(F)F)C(F)(F)F)=N\Nc1ccc([N+](=O)[O-])cc1[N+](=O)[O-] (stereo unspecified) | > 2 | 0.468 | –
31 | C=C(c1ccc(OC)c(OC)c1)c1nccc2cc(OC)c(OC)cc12 | > 74.1 | 12.6 | –
32 | O=C(CCc1nc(=S)[nH][nH]1)Nc1ccc(Cl)c(Cl)c1 | – | – | inactive
33 | CC(=O)OCc1nc2ncnc(N)c2[nH]1 | > 631 | > 631 | –
34 | CCCCCCCCCCCCCCCCCC(=O)OC[C@H](COP(=O)(O)OCCNC(=O)CCC(=O)OCCC=C(c1cc(Cl)c(OC)c(C(=O)OC)c1)c1cc(Cl)c(OC)c(C(=O)OC)c1)OC(=O)CCCCCCCCCCCCCCCCC | > 100 | > 100 | –
35 | Cc1cc2c(C(C)C)c(O)c(O)c(C=NCCO)c2c(O)c1-c1c(C)cc2c(C(C)C)c(O)c(O)c(C=NCCO)c2c1O | – | – | inactive
36 | NS(=O)(=O)c1ccc(NC(=O)c2cccc3c(=O)c4ccccc4[nH]c23)cc1 | – | – | inactive
37 | CC(O)C(NC(=O)c1ccccc1)C(=O)N(Cc1ccccc1)Cc1ccccc1 (stereo unspecified) | > 17.8 | > 17.8 | –
38 | CN1C(=O)C(/C=N/NC(=O)c2cccnc2)C(N)N(C)C1=O (stereo unspecified) | > 200 | > 200 | –
39 | CC(C)N(C(=O)C12C3C4C1C1C2C3C41C(N)=O)C(C)C (stereo unspecified) | > 912 | > 912 | –
40 | CC1(C)CC(c2c[nH]c3ccccc23)=CC2=Nc3ccccc3C21O (stereo unspecified) | – | – | inactive
41 | CCCCCSSSCCCCC | > 200 | 34.7 | –
42 | C[C@@H]1C[C@H]2[C@@H]3CCC4=CC(=O)C=C[C@]4(C)[C@@]3(F)[C@@H](O)C[C@]2(C)C1=O | – | – | inactive

Row | SMILES | EC50 [µM] | IC50 [µM] | outcome
43 | C#CCCCC(=C)C[C@@H]1OC(=O)[C@H](C)[C@@H]1O | > 200 | > 200 | –
44 | COc1cc(C[P+](c2ccccc2)(c2ccccc2)c2ccccc2)cc(OC)c1OC | > 479 | 33.1 | –
45 | CN(C)CCNc1ncnc2nc(-c3ccccc3)c(-c3ccccc3)nc12 | > 200 | 112 | –
46 | COc1ccc2c3c([nH]c(=O)c2c1C(=O)O)-c1ccccc1CC3 | > 16.2 | > 16.2 | –
47 | CC1=C(C#N)C2(C(=O)N(C)c3ccccc32)C(C#N)=C(C)N1c1ccccc1 | > 14.1 | > 14.1 | –
48 | COc1cc(/C=C/C(=O)CC(=O)/C=C/c2ccc(OC(=O)CCCCC3CCSS3)c(OC)c2)ccc1OC(=O)CCCCC1CCSS1 (stereo unspecified) | > 200 | > 200 | –
49 | Cc1c(C(=O)CC(=O)C(=O)Nc2ccccc2C(F)(F)F)[n+](=O)c2ccccc2n1[O-] | > 4.57 | > 4.57 | –
50 | COc1ccc(C(=O)C2CCC(C(=O)O)C2)cc1 (stereo unspecified) | – | – | inactive
51 | COC(=O)C(CC(=O)c1c[nH]c2ccccc12)c1c[nH]c2ccccc12 (stereo unspecified) | – | – | inactive
52 | Cc1cccc2c(=O)c3cccc(CC(=O)O)c3oc12 | > 200 | > 200 | –
53 | CC(C(=O)c1cc(O)c(O)cc1C(O)(C(F)(F)F)C(F)(F)F)C(O)(C(F)(F)F)C(F)(F)F (stereo unspecified) | 70.8 | > 100 | –
54 | Cc1ccc2cc(NC(=O)CBr)c3ccc(C)nc3c2n1.Cc1ccc2cc(NC(=O)CBr)c3ccc(C)nc3c2n1.O=C1OC(C(O)C[O-])C(O)=C1O.[Cu+] | > 12.6 | 3.02 | –
55 | CCCCN1C=CN2c3nc4cc(C)c(C)cc4n3C(C(=O)OC)=C(C(=O)OC)C12 (stereo unspecified) | – | – | inactive
56 | O=P1(c2ccccc2)c2ccccc2-c2ccccc21 | > 200 | 102 | –
57 | CCN(CC)CCC(=O)Nc1ccc2c(c1)C(=O)c1ccc(NC(=O)CCN(CC)CC)cc1C2=O | > 200 | 3.39 | –
58 | CCCCCCCCCCCCOC1C(COCCN2CCCCC2)OC2OC(C)(C)OC21 (stereo unspecified) | > 200 | 2.63 | –
59 | O=C(O)c1cc(I)cc(I)c1O.O=[N+]([O-])C1CCC(O)C2[N-]CCCC21.[Cu+] (stereo unspecified) | > 200 | 5.62 | –
60 | CCOc1ccc(-c2oc(/C=N/NS(=O)(=O)c3ccc(C)cc3)c([N+](=O)[O-])c2-c2ccc(OCC)cc2)cc1 | > 3.63 | > 3.63 | –
61 | CC(C(=O)O)C1Nc2ccccc2NC1=O (stereo unspecified) | > 200 | 83.2 | –
62 | COc1cc(O)c(/C=N\O)c(OC)c1 | > 912 | 83.2 | –
63 | CCCC/C(CC)=N/NS(=O)(=O)c1ccc(NC(C)=O)cc1 | > 398 | 288 | –

Row | SMILES | EC50 [µM] | IC50 [µM] | outcome
64 | O=C(CC1=Nc2nnc(CCCCCCCc3nnc4n3C(=O)C(CC(=O)c3ccc5ccccc5c3)=N4)n2C1=O)c1ccc2ccccc2c1 | > 4.07 | > 4.07 | –
65 | O=c1c2c3c(sc2nc2n1N=CN(c1ccc(F)cc1)C2)CCCC3 | > 200 | > 200 | –
66 | Cc1ccccc1NC(=O)C(=O)C(C#N)c1ccc(Cl)cc1 (stereo unspecified) | > 12 | > 12 | –
67 | CCCCCCCCCCCCCCCCC(C(=O)O)C(=O)O | > 21.9 | > 21.9 | –
68 | C[C@@]1(C(=O)O)CCC[C@@]2(C)C1[C@H](OC(=O)c1ccccc1)CC1CC3CC12CC[C@@]3(C)O (stereo partly specified) | > 282 | 58.9 | –
69 | NC(=S)N/N=C1\c2ccccc2CCC1CCC1(O)CCc2ccccc2C1=O (stereo unspecified) | > 200 | 31.6 | –
70 | CCN(CC)c1ccc2c(c1)Oc1ccc(N(CC)CC)cc1C21Oc2ccccc2-c2c1c1ccccc1n2CC (stereo unspecified) | – | – | inactive
71 | C#CCN1C(=O)CN2C(Cl)(Cl)C2(c2ccccc2)c2cc(Cl)ccc21 (stereo unspecified) | > 200 | 22.9 | –
72 | COC1=CC(=O)C(=O)c2c(C)ccnc21 | – | – | inactive
73 | O=C(O)c1ccc(Nc2nc3ccc(C(F)(F)F)cc3nc2C(=O)O)cc1 | > 200 | > 200 | –
74 | Cc1ccc(C(=O)CC2(O)C(=O)Nc3c(C)cc(Cl)cc32)cc1 (stereo unspecified) | > 110 | > 110 | –
75 | COc1ccc(-c2cc(-c3ccccc3)c(C#N)c(=O)n2C2OC(COC(C)=O)C(OC(C)=O)C(OC(C)=O)C2OC(C)=O)cc1 (stereo unspecified) | > 15.8 | > 15.8 | –
76 | COc1cc(C2C(Cl)C(=O)N2NC(=O)c2ccc(NC(C)=O)cc2)ccc1O (stereo unspecified) | > 200 | > 200 | –
77 | CC1OC(n2cnc3c(=O)[nH]cnc32)C(O)C(O)C1O (stereo unspecified) | > 200 | > 200 | –
78 | CC(C)(O)S(=O)(=O)O | > 200 | > 200 | –
79 | CCOC(=O)/C(Br)=C1\OC(=O)c2ccccc2-c2ccccc21 | > 19.5 | > 19.5 | –
80 | COc1cc(/C=C2\SC(=S)N(/C=C/c3nc4ccccc4[nH]c3=O)C2=O)cc(OC)c1OC | > 200 | 18.2 | –
81 | CCc1ccccc1NC(=O)C(=O)C(C(=O)c1ccc(OC)cc1)c1ccc(OC)cc1 (stereo unspecified) | – | – | inactive

— PubChem BioAssay AID179 (DTP/NCI, 2004)
